Data: US9708305B2, “Substituted 1,2,3,4-tetrahydroisoquinoline derivatives for the treatment of hormone-dependent diseases” (UNIVERSITÉ LAVAL, priority 2013, dated 2017)
Like-named read-outs stand apart in the source and are kept apart here.

Legend:
T-47D cells [1] = assay: T-47D cell proliferation (estrogenicity / cytotoxicity), MTS; type: cell-based; conditions: for estrogenicity / cytotoxicity on T-47D cells / activity at 0.01 µM: 0.01 μM; for estrogenicity / cytotoxicity on T-47D cells: 0.1 μM and 1 μM; for activity at 0.01 µM / activity at 0.1 µM / activity at 1 µM: Homo sapiens, T47D, control cells set to 100%, mean±SD; for activity at 1 µM / Breast cancer cells T-47D (ER+) Agonist activity (%): 1 μM; for Breast cancer cells T-47D (ER+) Agonist activity (%): in % of control (100%; 0.1 nM of estradiol)
Method: The library of phenolic compounds described above was tested on estrogen-sensitive breast cancer T-47D cells.
In Table 1, cell proliferation of control cells is set to 100%. Results are expressed as mean±SD of one experiment in triplicate.
(§1) CellTitter 96® Aqueous One Solution Cell Proliferation Assay was used as an indirect colorimetric measurement of cell proliferation according to the manufacturer's instructions. Briefly, after the treatments, 20 μL of MTS solution was added to each well (100 μL) of the plates and incubated at 37° C. for 2 h (Saos-2) or 4 h (T-47D). The absorbance at 490 nm was then measured with a Thermo max microplate reader (Molecular Devices, Sunnyvale, Calif.). The control (culture media+DMSO) is set to 100% of cell proliferation.
(§2) The cells were plated in 96-well plates at a density of 3 000 cells/well and allowed to attach for 48 h. After this pre-incubation, the inhibitors and the reference compounds diluted in fresh culture media were added to the wells and replaced every 2 days for 7 days of treatment.

steroid sulfatase (STS) = biological target: T1, steroid sulfatase (STS) (Homo sapiens, UniProt P08842); assay: Steroid sulfatase (STS) inhibition, [3H]-E1S to [3H]-E1, homogenate of transfected HEK-293 cells; type: biochemical; conditions: for inhibition of STS: homogenates of transfected HEK-293 cells
T1 construct: expressed in transfected cells; host or cells: HEK-293 cells stably transfected with STS (G418 selection), obtained from Dr. Van Luu-The; used as freeze-thaw homogenate
T1 sequence (P08842 22-583): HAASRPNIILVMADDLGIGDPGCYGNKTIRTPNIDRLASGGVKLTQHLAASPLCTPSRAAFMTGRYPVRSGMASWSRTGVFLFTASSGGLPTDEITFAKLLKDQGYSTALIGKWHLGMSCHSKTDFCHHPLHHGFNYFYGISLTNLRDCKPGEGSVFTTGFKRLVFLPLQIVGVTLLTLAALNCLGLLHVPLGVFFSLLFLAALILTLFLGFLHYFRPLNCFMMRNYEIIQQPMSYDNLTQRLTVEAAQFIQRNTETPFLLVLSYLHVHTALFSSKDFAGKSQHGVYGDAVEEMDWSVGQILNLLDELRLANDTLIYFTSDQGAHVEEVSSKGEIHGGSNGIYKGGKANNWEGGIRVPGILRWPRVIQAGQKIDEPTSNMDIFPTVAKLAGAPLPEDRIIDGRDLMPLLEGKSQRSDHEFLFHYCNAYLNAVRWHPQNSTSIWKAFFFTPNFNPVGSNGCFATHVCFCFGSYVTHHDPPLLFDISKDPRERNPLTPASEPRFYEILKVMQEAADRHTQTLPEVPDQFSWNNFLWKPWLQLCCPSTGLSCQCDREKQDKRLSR
Method: To test STS inhibition, we used homogenated HEK-293 cells overexpressing STS and evaluated the capacity of our compounds to inhibit the conversion of [^3H]-E1S into [^3H]-E1. […] This is outlined in FIG. 5.
An enzymatic assay previously described was used for the inhibition of the transformation of estrone sulfate (E1S) to estrone (E1) by STS.^72 Briefly, the transfected HEK-293 cells were homogenized by repeated (5 times) cycles of freezing (−80° C.) and thawing on ice (4° C.). The homogenates were then incubated for 2 h at 37° C. (shaking water bath) with or without inhibitors (0.01 μM-1 μM) in presence of [^3H]-E1S (9 nM), adjusted to 1 μM with E1S, in a Tris-acetate buffer (pH 7.4) containing 5 mM EDTA and 10% glycerol. After the incubation, 1 mL of xylene was added to each tube and the solutions were then centrifuged at 3000 rpm for 20 min to separate the organic ([^3H]-E1) and aqueous ([^3H]-E1S) phases. Once 500 μL of each phase was added to 10 mL of Biodegradable Counting Scintillant, the radioactivity of samples was recorded using a Wallac 1411 Liquid Scintillation Counter. The percentage of inhibition was determined by comparison with the control (buffer+homogenate+[^3H]-E1S) which was set to 0% of inhibition. IC50 value was obtained using GraphPad Prism 5 (GraphPad Software, La Jolla, Calif.).

T-47D cells [2] = assay: T-47D cell proliferation in presence of E2 (antiestrogenicity); type: cell-based; conditions: for inhibition at 1 µM: Homo sapiens, T47D, read-out: Breast cancer cells T-47D (ER+) Antagonist activity (%)
Method: as §1, §2

[3] = system: osteoblast-like Saos-2 cells; assay: Saos-2 cell proliferation, MTS; type: cell-based; conditions: for Saos-2 cell proliferation, dose response: 1 nM to 1 μM; for Saos-2 cell proliferation, dose response / Saos-2 cell proliferation: 7 days; for Bone cells Saos-2 (ER+) SERM effect Proliferative activity (%): in percentage of control (100%; 0.1 nM of estradiol); for Saos-2 cell proliferation: control 100%
From the text: First, we wanted to evaluate their effect on cell proliferation. […] This is outlined in FIG. 8A. […] One of the main roles of osteoblasts in bone tissue is to construct a calcified extracellular matrix.^15 As such, bone formation is not principally due to osteoblasts proliferation but rather osteoblasts maturation into mature osteocytes. […] This is outlined in FIG. 8B.
as §1
Saos-2 cells were suspended in phenol-red free McCoy's 5A medium supplemented with 10% charcoal-stripped FBS, penicillin (100 IU/mL) and streptomycin (100 μg/mL). The cells were seeded in 96-well plates at a density of 3 000 cells/well and allowed to attach. After 24 h, the inhibitors and the reference compounds diluted in fresh culture media were added to the wells and replaced every 2 days for 7 days of treatment.

[4] = system: alkaline phosphatase (ALP) activity in Saos-2 cells; assay: Alkaline phosphatase (ALP) activity in Saos-2 cells; type: cell-based
Method: ALP is an enzyme that releases inorganic phosphate from different intracellular substrates such as pyrophosphate and pyridoxal 5′-phosphate.^63 The inorganic phosphate is used in the formation of hydroxyapatite crystals which are then inserted in the extracellular protein scaffold to form the solid part of bone tissue.
Saos-2 cells were treated similarly as reported in the cell proliferation assay. The cells were seeded at a density of 2 000 cells/well and were treated with the inhibitors and the reference compounds for 3 days. The alkaline phosphatase (ALP) activity was measured using Sensolyte® pNPP Alkaline Phosphatase Assay Kit *Colorimetric* (AnaSpec, Fremont, Calif.) following the manufacturer's protocol. Briefly, after the 3 days of treatment, the cells were washed twice with washing buffer (provided with the kit) and lysed with 0.2% Triton X-100. The cell lysates were centrifuged and the supernatants were used to determine the ALP activity. The supernatants were deposed in a 96-well plate and incubated 30 min with a p-nitrophenyl phosphate solution (provided with the kit). The absorbance at 405 nm was measured with a Thermo max microplate reader (Molecular Devices, Sunnyvale, Calif.). The control (culture media+DMSO) is set to 100% of alkaline phosphatase activity.

[5] = transformation of E1S into E1 in homogenate of HEK-293 cells transfected with STS, read-out: Steroid Sulfatase Inhibition IC50
[6] = homogenated HEK-293 cells overexpressing STS, [3H]-E1S to [3H]-E1, read-out: STS inhibition IC50

SMILES	inhibition of STS (steroid sulfatase (STS))	estrogenicity / cytotoxicity on T-47D cells (T-47D cells [1])	activity at 0.01 µM (T-47D cells [1])	activity at 0.1 µM (T-47D cells [1])	activity at 1 µM (T-47D cells [1])	other results
O=C(c1ccc(CN(Cc2ccccn2)Cc2ccco2)cc1)N1CCc2ccc(O)cc2C1 [Compound 25, (4-{[(furan-2-ylmethyl)(pyridin-2-ylmethyl)amino]methyl}phenyl)(7-hydroxy-3,4-dihydroisoquinolin-2(1H)-yl)methanone]	no significant inhibition	neither estrogenicity nor cytotoxicity	104 ± 2.3%	103 ± 2.5%	104 ± 6.5%	–
O=C(c1ccc(CN(Cc2ccc(Br)cc2)Cc2ccco2)cc1)N1CCc2ccc(O)cc2C1 [Compound 26, (4-{[(4-bromobenzyl)(furan-2-ylmethyl)amino]methyl}phenyl)(7-hydroxy-3,4-dihydroisoquinolin-2(1H)-yl)methanone]	–	–	106.3 ± 0.6%	109 ± 1.2%	59.2 ± 3.1%	–
O=C(c1ccc(CN(CCN2CCOCC2)Cc2ccco2)cc1)N1CCc2ccc(O)cc2C1 [Compound 27, [4-({(furan-2-ylmethyl)[2-(morpholin-4-yl)ethyl]amino}methyl)phenyl](7-hydroxy-3,4-dihydroisoquinolin-2(1H)-yl)methanone]	–	–	108 ± 5.5%	106 ± 1.5%	119 ± 9.6%	–
Cc1ccc(CN(Cc2ccc(C(=O)N3CCc4ccc(O)cc4C3)cc2)Cc2ccccn2)s1 [Compound 28, (7-hydroxy-3,4-dihydroisoquinolin-2(1H)-yl)[4-({[(5-methylthiophen-2-yl)methyl](pyridin-2-ylmethyl)amino}methyl)phenyl]methanone]	–	–	101 ± 3.8%	105 ± 4.4%	78.9 ± 6.8%	–
Cc1ccc(CN(Cc2ccc(C(=O)N3CCc4ccc(O)cc4C3)cc2)Cc2ccco2)s1 [Compound 29, [4-({(furan-2-ylmethyl)[(5-methylthiophen-2-yl)methyl]amino}methyl)phenyl](7-hydroxy-3,4-dihydroisoquinolin-2(1H)-yl)methanone]	no significant inhibition	neither estrogenicity nor cytotoxicity	97.1 ± 2.6%	103 ± 1.8%	96.8 ± 2.2%	Breast cancer cells T-47D (ER+) Agonist activity (%) (T-47D cells [1]): 0%; IC50 (steroid sulfatase (STS); [5]): > 1000 nM; blockade of the stimulation induced by E2 in T-47D cells (T-47D cells [2]; 5 μM, E2 0.1 nM): approximately 84%; inhibition at 1 µM (T-47D cells [2]): 46%; Saos-2 cell proliferation, dose response [3]: apparent dose-dependent response; Bone cells Saos-2 (ER+) SERM effect Proliferative activity (%) ([3]; 0.1 μM): 175%; Saos-2 cell proliferation ([3]; 1 μM): ~150%; Bone cells Saos-2 (ER+) SERM effect Proliferative activity (%) ([3]; 1 μM): 250%; Bone cells Saos-2 (ER+) SERM effect Alkaline phosphatase activity (%) ([4]; 0.1 nM): 114%; stimulation of ALP activity in presence of ICI-164,384 or MPP + PHTPP ([4]; 0.1 nM compound, antagonists 1 μM, 3 days): completely blocked the stimulation; ALP activity in Saos-2 cells ([4]; 0.1 nM, 3 days, control 100%): 138%
O=C(c1ccc(CN(Cc2ccc(O)cc2)Cc2ccco2)cc1)N1CCc2ccc(O)cc2C1 [Compound 30, (4-{[(furan-2-ylmethyl)(4-hydroxybenzyl)amino]methyl}phenyl)(7-hydroxy-3,4-dihydroisoquinolin-2(1H)-yl)methanone]	–	–	108 ± 5.5%	138 ± 1.2%	200 ± 4.9%	–
COc1ccc(CN(Cc2ccc(C(=O)N3CCc4ccc(O)cc4C3)cc2)Cc2ccccn2)cc1 [Compound 31, (7-hydroxy-3,4-dihydroisoquinolin-2(1H)-yl)(4-{[(4-methoxybenzyl)(pyridin-2-ylmethyl)amino]methyl}phenyl)methanone]	no significant inhibition	neither estrogenicity nor cytotoxicity	105.6 ± 0.6%	105 ± 7.4%	101 ± 7.9%	–
NS(=O)(=O)Oc1ccc2c(c1)CN(C(=O)c1ccc(CN(Cc3ccccn3)Cc3ccco3)cc1)CC2 [Compound 32, 2-[(4-{[(furan-2-ylmethyl)(pyridin-2-ylmethyl)amino]methyl}phenyl)carbonyl]-1,2,3,4-tetrahydroisoquinolin-7-yl sulfamate]	–	–	–	–	–	IC50 (steroid sulfatase (STS); [6]): 16.6 nM
Cc1ccc(CN(Cc2ccc(C(=O)N3CCc4ccc(OS(N)(=O)=O)cc4C3)cc2)Cc2ccco2)s1 [Compound 33, 2-{[4-({(furan-2-ylmethyl)[(5-methylthiophen-2-yl)methyl]amino}methyl)phenyl]carbonyl}-1,2,3,4-tetrahydroisoquinolin-7-yl sulfamate]	–	–	–	–	–	Breast cancer cells T-47D (ER+) Agonist activity (%) (T-47D cells [1]): 0%; IC50 (steroid sulfatase (STS); [5]): 3.9 nM; inhibition at 1 µM (T-47D cells [2]): 25%; Saos-2 cell proliferation, dose response [3]: apparent dose-dependent response; Bone cells Saos-2 (ER+) SERM effect Proliferative activity (%) ([3]; 0.1 μM): 33%; Saos-2 cell proliferation ([3]; 1 μM): ~150%; Bone cells Saos-2 (ER+) SERM effect Proliferative activity (%) ([3]; 1 μM): 211%; Bone cells Saos-2 (ER+) SERM effect Alkaline phosphatase activity (%) ([4]; 0.1 nM): 48%
COc1ccc(CN(Cc2ccc(C(=O)N3CCc4ccc(OS(N)(=O)=O)cc4C3)cc2)Cc2ccccn2)cc1 [Compound 34, 2-[(4-{[(4-methoxybenzyl)(pyridin-2-ylmethyl)amino]methyl}phenyl)carbonyl]-1,2,3,4-tetrahydroisoquinolin-7-yl sulfamate]	–	–	–	–	–	IC50 (steroid sulfatase (STS); [6]): 3.9 nM
